This is an account of results in PubChem BioAssay AID624480 (The Scripps Research Institute Molecular Screening Center, 2012).

Active and inactive are the calls of the source.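 Rule for the calls: active = inhibition of probe labeling in the gel above a set limit; inactive = inhibition at or below that limit.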

For this assay, the target named is Prolyl endopeptidase-like (Mus musculus) (UniProt Q8C167). Put plainly: PREPL inhibitors in brain proteome, biochemical, gel-based competitive ABPP, fluorescence, mouse, assay provider (AID 624480). The note with it: mouse brain proteome spiked PREPL, FP-Rh gel ABPP; at 50 µM; stronger effect = higher value.
Chain of Prolyl endopeptidase-like (Mus musculus) (Q8C167 whole entry, looked up): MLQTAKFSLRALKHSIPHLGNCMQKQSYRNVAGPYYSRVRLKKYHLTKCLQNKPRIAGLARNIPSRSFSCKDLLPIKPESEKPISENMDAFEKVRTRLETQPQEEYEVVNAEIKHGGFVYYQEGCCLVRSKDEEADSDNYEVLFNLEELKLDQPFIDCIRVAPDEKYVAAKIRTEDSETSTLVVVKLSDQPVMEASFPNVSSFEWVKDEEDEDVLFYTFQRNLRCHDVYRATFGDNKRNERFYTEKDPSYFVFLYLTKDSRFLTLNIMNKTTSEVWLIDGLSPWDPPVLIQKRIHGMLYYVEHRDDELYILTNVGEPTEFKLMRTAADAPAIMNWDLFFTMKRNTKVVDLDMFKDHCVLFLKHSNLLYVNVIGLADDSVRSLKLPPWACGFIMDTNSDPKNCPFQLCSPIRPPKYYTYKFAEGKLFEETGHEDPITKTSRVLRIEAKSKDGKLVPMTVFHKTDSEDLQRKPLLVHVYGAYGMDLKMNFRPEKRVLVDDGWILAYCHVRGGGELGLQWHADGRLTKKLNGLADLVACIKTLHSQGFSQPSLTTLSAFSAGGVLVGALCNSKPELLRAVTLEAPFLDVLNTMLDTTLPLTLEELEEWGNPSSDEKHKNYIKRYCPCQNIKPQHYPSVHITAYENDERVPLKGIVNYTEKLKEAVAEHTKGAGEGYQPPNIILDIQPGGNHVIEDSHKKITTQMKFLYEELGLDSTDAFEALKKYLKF
The term inhibition denotes the change of the read-out against control, counted positive when it falls. Turning to `O=C(Nc1ccc2c(c1)OCCO2)c1cccc2nc3ccccc3nc12`, the inhibition is 15% (inactive).

With `N#Cc1c2c(c(-c3ccccc3)[nH]c1=O)CCCC2`, the inhibition is 41%.

`CCOc1ccc(CCNC(=O)c2ccc3c(=O)[nH]c4c(C(=O)NC(C)C)sc(=S)n4c3c2)cc1`: the inhibition is 25%.

Regarding `CC(C)Cc1[nH]c(=O)c(C#N)c2c1CCC2`, the inhibition was 70%.

With `COc1cc2nc(Nc3ccc(C)c(C)c3)nc(N)c2cc1OC`, the inhibition is 17% (inactive).
